Measured values published in US20230173029A1, “TREATMENT OF CARDIAC REMODELLING” (UNIVERSITETET I OSLO, priority 2020, published 2023).

What was measured:
[1] = tested on: left ventricular cardiomyocytes; experiment: Cardiomyocyte isolation and t-tubule structure (di-8-ANEPPS confocal imaging); type: in vivo, rat; details: HT Dahl/SS rats, 50 or 100 ng/kg/day s.c. (pooled)
Method: (§1) A total of 29 adult Dahl salt-sensitive (Dahl/SS) male rats with an initial weight of 150 to 200 g were included in the study. Rats were purchased from Charles River Laboratories (USA) and housed in a room with a 12/12-hour light cycle, a temperature of 21° C., and a humidity of 55%. Rats were maintained on a normal salt diet up to seven weeks of age. Twenty-two Dahl/SS were then randomly switched to a high salt diet for 6 weeks to induce hypertension, whilst 7 rats were kept normotensive (NT) on normal salt diet. Drinking water and food was provided ad libitum.
(§2) After 2 weeks of high salt diet, 15 hypertensive (HT) rats were started on treatment with proANP31-67. Rats treated with proANP31-67 received one of two dosages: 50 ng/kg/day (n=8) or 100 ng/kg/day (n=7). A total of 14 rats received only vehicle: control rats on a normal salt diet (n=7); and HT rats on a high salt diet (n=7). Rats were randomly assigned to the 3 groups (i.e. control normal salt; high salt untreated; high salt plus treatment).
(§3) Drug or vehicle was delivered via Alzet osmotic mini-pumps (Model 2004; mean pumping rate […], mean fill volume […]) implanted subcutaneously (as instructed by the manufacturer) for 28 days. Animals were treated with buprenorphine (0.05 mg/kg s.c.) as analgesic 30 minutes before and up to 1 day following implantation of pumps.
A subset of rats was used for analyses of t-tubule structure in isolated left ventricular cardiomyocytes. These animals were anaesthetised as described above and euthanised by removal of the heart. […]
Cardiomyocytes were then isolated as previously described (Frisk et al., American Journal of Physiology—Heart and Circulatory 307: H609-620, 2014). […] Fluorescence was excited at 488 nm and emitted light above 500 nm was measured. t-tubule captures were recorded with 1871×1871-pixel XY images, recorded as z-stacks (spatial resolution: 77×77×500 nm). […] Cell area, t-tubule density and distance to nearest t-tubule or sarcolemmal membrane were analysed as previously described (Frisk et al., Cardiovascular Research 112: 445-451, 2016).

[2] = tested on: Dahl salt-sensitive (Dahl/SS) male rats; experiment: Tail-cuff blood pressure measurement in hypertensive Dahl/SS rats; type: in vivo, rat; details: for DBP (diastolic blood pressure) / MAP (mean arterial pressure) / SBP (systolic blood pressure): HT Dahl/SS rats on high salt diet, at 6 weeks, mean ± SEM
Method: as §1, §2, §3
Measurement was carried out using the CODA non-invasive blood pressure acquisition system for rats (Kent Scientific Corporation). Animals were kept in restraint tubes and placed over a heating platform (preheated to 33 to 35° C.) and blood pressure measured by a tail-cuff system. Each recording session consisted of 25 acclimation cycles (not used in the analysis), followed by 20 inflation and deflation cycles (the occlusion cuff is inflated to 250 mm Hg and deflated over 20 s). Rats were trained for at least 5 consecutive days before blood pressure measurements were recorded.
Experiments were performed as described above in Example 1, using a group of 8 Dahl/SS rats which, at 7 weeks of age, were switched to a high salt diet as described above. After 2 weeks of high salt diet, this group was started on proANP31-67 treatment. The rats were administered proANP31-67 at a renal sub-therapeutic dosage of 25 ng/kg/day.

[3] = tested on: rat neonatal cardiomyocytes; experiment: In vitro [3H]leucine incorporation in ANGII-stimulated neonatal cardiomyocytes; type: cell-based; details: 24 h
Method: Primary cultures of rat cardiomyocyte cells were prepared as previously described (Larsen et al., Cardiovascular Research 80(1): 47-54, 2008). In brief, hearts from 1-3 day old Wistar rats (Taconic), were isolated by […] and pancreatin digestion. Cardiomyocytes were separated from noncardiomyocytes by differential attachment to uncoated culture flasks (90151; Techno Plastic Products). Cardiomyocytes were allowed to attach to 6- or 12-well culture plates (Corning International, Corning, N.Y.) coated with gelatine/fibronectin (G-1890/F1141; Sigma, St. Louis, Mo.) overnight in plating medium (2 or 1 ml) at a density of 2.5×10^5 cells/ml medium [DMEM (41965; GIBCO-BRL, Invitrogen) supplemented with penicillin/streptomycin/glutamine (G6784; Sigma), medium 199 (31150; GIBCO-BRL), HEPES (15630; GIBCO-BRL), horse serum (14-703E; Bio-Whittaker, Lonza), and fetal calf serum (14-701E; Bio-Whittaker)]. […]
5 μCi/ml [3H]leucine (American Radiolabeled Chemicals) were added at the same time as ANG II and the cells were washed six times in 95% EtOH before being harvested in 0.2 M NaOH 24 h after stimulation, as previously described (Halvorsen et al., Journal of Lipid Research 39(4): 901-912, 1998). […] [3H]leucine incorporation was quantified by measuring counts per minute in duplicates from each sample with the Wallac Winspectral 1414 liquid scintillation counter (PerkinElmer). […]

[4] = 50 or 100 ng/kg/day s.c. (pooled) for 28 days

proANP31-67: Human proANP31-67, linear peptide fragment of proANP consisting of SEQ ID NO: 1; also known as vessel dilator, VSDL (EVVPPQVLSEPNEEAGAALSPLPEVPPWTGEVSPAQR; listed as Homo sapiens)
cardiomyocyte size ([1]; FIG. 3B): preserved
t-tubule density ([1]; FIG. 3C): normal
increase of maximal intracellular distance from each point in the cytosol to the nearest t-tubule or surface membrane ([1]; FIG. 3D): prevented
DBP (diastolic blood pressure) ([2]; 25 ng/kg/day s.c.): 120.1 ± 4.7 mmHg
MAP (mean arterial pressure) ([2]; 25 ng/kg/day s.c.): 138.6 ± 4.1 mmHg
SBP (systolic blood pressure) ([2]; 25 ng/kg/day s.c.): 176.5 ± 3.4 mmHg
DBP (diastolic blood pressure) [2, 4]: 128.2 ± 2.3 mmHg
MAP (mean arterial pressure) [2, 4]: 144.9 ± 2.3 mmHg
SBP (systolic blood pressure) [2, 4]: 179.3 ± 2.4 mmHg
effect on systolic blood pressure ([2]; HT Dahl/SS rats, 25 ng/kg/day s.c., FIG. 5A): no effect
effect on elevated systolic blood pressure ([2]; HT Dahl/SS rats, 50 or 100 ng/kg/day s.c. (pooled), FIG. 1A): not lowered
ANGII-induced hypertrophy as indexed by [3H]-leucine incorporation ([3]; 37.5 ng/ml proANP31-67, 1 μM ANG II): prevented
ANGII-induced hypertrophy as indexed by [3H]-leucine incorporation ([3]; 150 ng/ml proANP31-67, 1 μM ANG II): prevented
